Key:
Assay type in all cases: cell-based
[1] = target: T1, Kv1.5 (Homo sapiens, UniProt P22460); assay: Kv1.5 Patch Clamp EP (whole cell patch clamp; single point at 1 μM and IC50); details: for IC50: concentration response; for inhibition at 1 µM: single point at 1.0 μM, Kv1.5 stably over expressed in HEK or LTK- cells
T1 construct: expressed in transfected cells; host or cells: HEK or LTK- cells
Procedure: The external solution is standard Tyrodes solution. […] Inhibition was measured at the end of the 1 second pulses and expressed relative to controls. Initial Kv1.5 inhibition is estimated by single point determinations done at 1 μM.

[2] = target: T2, HERG (Homo sapiens, UniProt Q12809); assay: HERG Patch Clamp EP (whole cell patch clamp, tail currents; single point at 10 μM and IC50); details: for IC50: concentration response; for inhibition at 10 µM: human, HEK cells stably overexpressing HERG, single point at 10 μM, HERG in HEK cells, read-out: HERG % Inhib. @ 10 μM
T2 construct: expressed in transfected cells; host or cells: HEK cells
Source text: The external solution is standard Tyrodes solution.

[3] = system: L-type calcium channels; assay: FLIPR L-type Calcium Channel Assay (calcium influx in HL-1 cells after KCl); details: read-out: L-type Ca2+ IC50
Outline: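 HL-1 cardiomyocytes loaded with FLIPR calcium dye for 60 min at 37° C in Tyrode's pH 7.35 with 2.5 mM probenecid, then preincubated 15 min with compounds. Channels were opened by 20 mM KCl final, and fluorescence was recorded for 5 min. Influx expressed as % control gave concentration-response IC50.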

T1 sequence (P22460 whole entry): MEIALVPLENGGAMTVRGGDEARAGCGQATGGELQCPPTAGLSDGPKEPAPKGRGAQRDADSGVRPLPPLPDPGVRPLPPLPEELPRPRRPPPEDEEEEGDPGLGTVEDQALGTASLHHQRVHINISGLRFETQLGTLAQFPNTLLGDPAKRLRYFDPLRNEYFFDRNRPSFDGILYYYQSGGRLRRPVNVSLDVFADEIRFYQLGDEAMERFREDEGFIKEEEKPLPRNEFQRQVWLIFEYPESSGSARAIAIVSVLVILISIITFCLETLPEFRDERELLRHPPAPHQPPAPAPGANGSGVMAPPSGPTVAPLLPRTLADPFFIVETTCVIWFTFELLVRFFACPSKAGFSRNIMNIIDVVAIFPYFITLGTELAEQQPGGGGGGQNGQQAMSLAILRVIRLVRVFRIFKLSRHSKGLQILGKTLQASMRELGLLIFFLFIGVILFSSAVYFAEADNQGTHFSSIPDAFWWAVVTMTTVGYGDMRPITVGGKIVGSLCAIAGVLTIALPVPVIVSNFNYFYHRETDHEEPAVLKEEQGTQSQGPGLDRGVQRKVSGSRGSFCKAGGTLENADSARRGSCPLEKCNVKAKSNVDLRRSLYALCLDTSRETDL
T2 sequence (Q12809 whole entry): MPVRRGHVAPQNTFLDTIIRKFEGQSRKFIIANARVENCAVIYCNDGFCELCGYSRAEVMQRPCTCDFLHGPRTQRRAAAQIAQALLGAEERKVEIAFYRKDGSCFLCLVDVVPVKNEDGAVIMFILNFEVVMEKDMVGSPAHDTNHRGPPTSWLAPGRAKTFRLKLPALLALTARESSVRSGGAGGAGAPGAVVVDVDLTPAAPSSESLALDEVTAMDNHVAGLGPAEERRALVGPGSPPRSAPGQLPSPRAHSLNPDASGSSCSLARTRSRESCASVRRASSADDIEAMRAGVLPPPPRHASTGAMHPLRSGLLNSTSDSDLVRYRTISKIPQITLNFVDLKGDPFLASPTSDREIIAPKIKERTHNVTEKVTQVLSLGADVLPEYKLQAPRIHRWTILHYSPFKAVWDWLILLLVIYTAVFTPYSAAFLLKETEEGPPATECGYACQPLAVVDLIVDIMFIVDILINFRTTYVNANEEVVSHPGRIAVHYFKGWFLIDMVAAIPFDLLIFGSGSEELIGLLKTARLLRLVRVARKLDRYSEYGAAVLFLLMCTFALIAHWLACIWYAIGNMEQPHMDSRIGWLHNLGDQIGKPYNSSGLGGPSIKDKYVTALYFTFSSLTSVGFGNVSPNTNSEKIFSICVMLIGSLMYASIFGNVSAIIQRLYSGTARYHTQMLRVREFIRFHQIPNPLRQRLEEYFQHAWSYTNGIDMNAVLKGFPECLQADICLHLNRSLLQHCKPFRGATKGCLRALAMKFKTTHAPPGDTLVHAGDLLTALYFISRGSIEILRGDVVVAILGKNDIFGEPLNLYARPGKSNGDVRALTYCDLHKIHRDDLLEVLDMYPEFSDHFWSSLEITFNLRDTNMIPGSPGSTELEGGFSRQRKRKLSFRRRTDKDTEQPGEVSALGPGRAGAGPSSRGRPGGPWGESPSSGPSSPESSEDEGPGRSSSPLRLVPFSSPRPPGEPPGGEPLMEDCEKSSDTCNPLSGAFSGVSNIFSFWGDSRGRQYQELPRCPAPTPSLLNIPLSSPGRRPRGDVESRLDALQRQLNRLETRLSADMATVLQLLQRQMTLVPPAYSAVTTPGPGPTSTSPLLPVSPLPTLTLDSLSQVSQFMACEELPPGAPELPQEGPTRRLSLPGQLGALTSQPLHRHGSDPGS

| IC50 [1] | inhibition at 1 µM [1] | IC50 [3] | Compound | IC50 [2] | inhibition at 10 µM [2] |
| --- | --- | --- | --- | --- | --- |
| 0.32 µM | 90% | 13 µM | COc1ccc(CCN2C(=O)C3(CCN(C(N)=O)CC3)N(C)[C@@H]2c2ccc(C3CC3)cc2)cc1 [Compound 98, (S)-2-(4-cyclopropylphenyl)-3-[2-(4-methoxyphenyl)ethyl]-1-methyl-4-oxo-1,3,8-triaza-spiro[4.5]decane-8-carboxylic acid amide] | 13 µM | 13% |
| 0.397 µM | 80% | 24 µM | COc1ccc(CCN2C(=O)C3(CCN(C(N)=O)CC3)N(C)[C@H]2c2ccc(C3CC3)cc2)cc1 [Compound 99, (R)-2-(4-cyclopropylphenyl)-3-[2-(4-methoxyphenyl)ethyl]-1-methyl-4-oxo-1,3,8-triaza-spiro[4.5]decane-8-carboxylic acid amide] | 16 µM | 24% |

From patent publication US20070299072A1, “KV1.5 POTASSIUM CHANNEL INHIBITORS” (Wyeth, priority 2006, published 2007)
